Test results reported in US20060189546A1, “Compounds for treating autoimmune and demyelinating diseases” (priority 2005, published 2006).

What was measured:
[1] = system: HT29 cell line; test: GI50 concentration in HT29 cells; assay type: cell-based; details: Homo sapiens, HT-29
[2] = system: Experimental Autoimmune Encephalomyelitis (EAE); test: Acute EAE, daily dosing for 15 days (Example 5); assay type: in vivo, guinea pigs
Procedure: Accordingly, three randomized cohorts of guinea pigs with EAE induced by the method of Example 2, were treated, respectively, with 6 mg/kg of Symadex™ (full salt hydrate) and 0.35 mg/kg of mitoxantrone. Animals were treated daily, by intraperitoneal injection, for 15 days, starting on day 7 post immunization. Controls were treated with vehicle. We reasoned that 15 consecutive, 6 mg/kg doses of Symadex™ would represent a level of drug exposure that would be commensurate with the “20 mg/kg every 72 hours” regimen in Example 4 and consistent with a mid level exposure between the 20 mg/kg and the 40 mg/kg schedule given weekly, in Example 2. The mitoxantrone dose was selected to reflect a typical high dose given to rats or mice by daily dosing in the prior art, but allometrically scaled to the guinea pig.

[3] = system: IL-10; test: Mediator release, IL-10 (Con A-stimulated PBML, sandwich ELISA); assay type: cell-based; details: Homo sapiens, IL-10 release
Procedure: (§1) In this experiment, test compound and/or vehicle were preincubated with human peripheral blood mononuclear leukocyte (PBML, 1×10^6/ml) in RPMI buffer pH 7.4 for 2 hours. Concanavalin A (Con A, 20 μg/ml) was then added to stimulate the cells overnight in 5% CO2 at 37° C. IL-4 and IL-10 cytokine levels in the conditioned medium were then quantified using a sandwich ELISA kit. Compounds were screened at 10, 1, 0.1, 0.01 and 0.001 μM.

[4] = system: IL-4; test: Mediator release, IL-4 (Con A-stimulated PBML, sandwich ELISA); assay type: cell-based; details: Homo sapiens
Procedure: as §1

[5] = system: B-lymphocyte cells; test: Cell Proliferation, B-Cell + LPS ([3H]thymidine incorporation); assay type: cell-based, balb/c mice; details: Mus musculus
Procedure: B-lymphocyte cells isolated from the spleen of balb/c mice weighing 17±1 g were used. Test compound and/or vehicle were incubated with the cells (1.5×10^6/ml) in the presence of 10 μg/ml lipopolysaccharide (LPS) in AIM-V medium pH 7.4 at 37° C. for 24 hours. [^3H]Thymidine (120 nM) was then added for an additional overnight incubation period. Thymidine incorporation was assessed by liquid scintillation counting.
Test compound-induced suppression of cell proliferation by 50 percent or more (≧50%) relative to vehicle control response indicates significant inhibitory activity.

[6] = necropsy after 15 daily doses, Symadex 6 mg/kg, mitoxantrone 0.35 mg/kg
[7] = 1 nM, read-out: % Growth Inhibition
[8] = 10 nM, read-out: % Growth Inhibition
[9] = 0.1 μM, read-out: % Growth Inhibition
[10] = 1 μM, read-out: % Growth Inhibition
[11] = 10 μM, read-out: % Growth Inhibition
[12] = B-cell, read-out: % Growth Inhibition

## CCN(CC)CCNc1ccc2ncn3c4ccc(O)cc4c(=O)c1c23 [Symadex™, 5-[[(diethylamino)ethyl]amino]-8-hydroxyimidazo[4,5,1-de]-acridine-6-one]
[1]
  GI50: 680 nM
[2]; daily i.p. for 15 days from day 7, Symadex 6 mg/kg, mitoxantrone 0.35 mg/kg
  clinical score (neurological impairment): the initial rise in neurological impairment is arrested
[2]; guinea pig, in vivo
  weight gain profile vs vehicle controls, statistical significance: did not show statistical significance
[2]; [6]
  reduction of meningeal inflammation (M) pathology score: does not
  reduction of perivascular cuffing (P), myelitis (E) and demyelination (D) pathology scores: statistically significant differences (p value<0.05) from control
[3]
  IC50: 1200 nM
[3]; [7]
  inhibition at 0.001 µM: 1%
[3]; [8]
  inhibition at 0.01 µM: 16%
[3]; [9]
  inhibition at 0.1 µM: 16%
[3]; [10]
  inhibition at 1 µM: 39%
[3]; [11]
  inhibition at 10 µM: 99%
[4]; [7]
  % inhibition of IL-4 release at 0.001 µM: 8%
[4]; [8]
  % inhibition of IL-4 release at 0.01 µM: 7%
[4]; [9]
  % inhibition of IL-4 release at 0.1 µM: 2%
[4]; [10]
  % inhibition of IL-4 release at 1 µM: -9%
[4]; [11]
  % inhibition of IL-4 release at 10 µM: 105%
[4]; IL-4 release
  IC50: 3.33 µM
[5]; [12]
  inhibition at 1 µM: 101%
  inhibition at 10 µM: 103%
[5]; B-Cell + LPS
  IC50: 38 nM
[5]; B-Cell + LPS, 1 nM, read-out: % Growth Inhibition
  inhibition at 0.001 µM: 0%
[5]; B-Cell + LPS, 10 nM, read-out: % Growth Inhibition
  inhibition at 0.01 µM: 38%
[5]; B-Cell + LPS, 0.1 μM, read-out: % Growth Inhibition
  inhibition at 0.1 µM: 80%
